Source: US6489137B2, “Detection of loss of the wild-type huBUB1 gene” (Chiron Corporation, priority 1997, dated 2002)

Target: T1, huBUB1 kinase (Homo sapiens, UniProt O43683)
T1 construct: Plasmid p385-1, encoding full-length huBUB1 in the vector pCR3.1 (Invitrogen), was employed as a backbone for further constructs; made in house; host or cells: cell-free coupled in vitro transcription/translation (T7 TnT kit, Promega) from pCR3.1 plasmids, anti-FLAG immunopurified
Test: in vitro huBUB1 kinase (autophosphorylation) assay
Assay type: biochemical
Conditions: for relative huBUB1 autophosphorylation: immunopurified FLAG-BUB3/BUB1, labeled-ATP kinase reaction, SDS-PAGE, phosphorimager; for inhibition of huBUB1 kinase (result in words): tested at 5, 10 and 20 μM
Excerpt: A set of known compounds was screened using an in vitro huBUB1 kinase assay. Tested compounds included olomucine, myrecetin, hypericin, iodotubercidin, ellagic acid, emodin, and staurosporine. The relative specificity of these compounds towards known kinases has been reported in the literature. Some of these compounds can be classified as relatively specific kinase inhibitors (e.g., olomucine, myrecetin, ellagic acid), while other inhibitors are known to inhibit a broad range of kinase (e.g., hypericin, iodotubercidin, staurosporine).
Unlabeled FLAG-BUB3/BUB1 in vitro translation products were immunopurified with anti-FLAG. […] kinase reactions were performed in the presence and absence of inhibitors in 20 μl reaction volumes. Labeled reaction products were separated on SDS-PAGE gels, and relative huBUB1 autophosphorylation was determined with the aid of a phosphorimager. An initial screen was conducted using 10 and 20 μM of each compound. Compounds with a positive result in this screen were then retested at 5, 10 and 20 μM (Table 1).

T1 sequence (O43683 whole entry): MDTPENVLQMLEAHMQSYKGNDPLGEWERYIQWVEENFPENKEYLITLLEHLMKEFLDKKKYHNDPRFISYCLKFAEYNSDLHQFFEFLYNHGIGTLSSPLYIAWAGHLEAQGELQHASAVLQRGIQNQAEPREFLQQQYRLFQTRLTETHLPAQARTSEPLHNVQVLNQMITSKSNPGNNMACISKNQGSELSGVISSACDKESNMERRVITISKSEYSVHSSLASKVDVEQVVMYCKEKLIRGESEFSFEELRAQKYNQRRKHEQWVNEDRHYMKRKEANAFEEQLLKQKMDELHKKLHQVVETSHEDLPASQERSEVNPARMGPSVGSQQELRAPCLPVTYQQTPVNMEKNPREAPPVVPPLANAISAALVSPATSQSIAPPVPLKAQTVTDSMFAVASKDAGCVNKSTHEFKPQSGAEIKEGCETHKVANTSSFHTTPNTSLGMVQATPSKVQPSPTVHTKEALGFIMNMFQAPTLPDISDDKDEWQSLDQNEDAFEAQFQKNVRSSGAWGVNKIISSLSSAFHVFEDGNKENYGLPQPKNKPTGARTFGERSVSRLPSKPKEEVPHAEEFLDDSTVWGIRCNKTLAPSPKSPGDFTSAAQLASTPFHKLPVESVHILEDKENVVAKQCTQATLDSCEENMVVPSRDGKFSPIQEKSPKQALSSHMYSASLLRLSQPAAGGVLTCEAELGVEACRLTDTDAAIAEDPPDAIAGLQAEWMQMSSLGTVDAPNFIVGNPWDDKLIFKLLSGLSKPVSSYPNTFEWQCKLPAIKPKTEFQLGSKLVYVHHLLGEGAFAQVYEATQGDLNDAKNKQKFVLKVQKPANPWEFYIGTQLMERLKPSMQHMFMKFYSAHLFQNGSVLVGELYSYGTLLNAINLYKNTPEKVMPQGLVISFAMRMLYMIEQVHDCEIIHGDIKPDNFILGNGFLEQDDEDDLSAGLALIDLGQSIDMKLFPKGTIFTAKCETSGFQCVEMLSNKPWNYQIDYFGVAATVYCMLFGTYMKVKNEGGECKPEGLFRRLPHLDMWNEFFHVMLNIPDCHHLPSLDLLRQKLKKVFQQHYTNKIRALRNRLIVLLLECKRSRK
T1 sequence (O43684 whole entry partner): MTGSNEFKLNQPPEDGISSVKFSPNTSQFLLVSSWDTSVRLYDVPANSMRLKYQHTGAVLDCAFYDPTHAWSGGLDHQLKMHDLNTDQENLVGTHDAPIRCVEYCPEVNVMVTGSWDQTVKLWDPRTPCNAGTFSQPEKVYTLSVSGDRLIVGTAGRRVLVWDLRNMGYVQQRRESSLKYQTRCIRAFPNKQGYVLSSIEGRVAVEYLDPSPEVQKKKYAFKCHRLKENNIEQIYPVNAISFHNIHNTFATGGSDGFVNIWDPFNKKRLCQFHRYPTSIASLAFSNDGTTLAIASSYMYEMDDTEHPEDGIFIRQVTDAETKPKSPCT

| Compound | relative huBUB1 autophosphorylation (5 μM compound) | relative huBUB1 autophosphorylation (10 μM compound) | relative huBUB1 autophosphorylation (20 μM compound) | inhibition of huBUB1 kinase (result in words) |
| --- | --- | --- | --- | --- |
| Cc1cc(O)c2c(=O)c3c(O)cc(O)c4c5c(O)cc(O)c6c(=O)c7c(O)cc(C)c8c1c2c(c34)c(c78)c65 [hypericin] | 0.63 +/− 0.07 | 0.47 +/− 0.13 | 0.36 +/− 0.05 | – |
| Nc1ncnc2c1c(I)cn2[C@@H]1O[C@H](CO)[C@@H](O)[C@H]1O [iodotubercidin] | 0.56 +/− 0.08 | 0.41 +/− 0.09 | 0.32 +/− 0.05 | clearly inhibited |
| CN[C@@H]1C[C@H]2O[C@@](C)([C@@H]1OC)n1c3ccccc3c3c4c(c5c6ccccc6n2c5c31)C(=O)NC4 [staurosporine] | 0.45 +/− 0.11 | 0.49 +/− 0.11 | 0.26 +/− 0.04 | clearly inhibited |
